Patent US9181307B2, “Influenza A 2009 pandemic H1N1 polypeptide fragments comprising endonuclease activity and their use” (priority 2010, dated 2015)

Tested on: Influenza A 2009 pandemic H1N1 PA subunit polypeptide fragment or variant thereof
Assay: Inhibition of endonucleolytic activity of PA subunit polypeptide fragment
Type: biochemical, Influenza A 2009 pandemic H1N1 virus

SMILES | ability to modulate, i.e. to inhibit, the endonucleolytic activity
O=C(O)/C(O)=C/C(=O)C1(Cc2ccc(Cl)cc2)CCN(CC2CCCCC2)CC1 [EMBL-R05-2, 4-[4-[(4-chlorophenyl)methyl]-1-(cyclohexylmethyl)-4-piperidinyl]-2-hydroxy-4-oxo-2-butenoic acid] | inhibit
O=C(O)/C(O)=C/C(=O)C1(Cc2ccc(Cl)cc2)CCCN(Cc2ccccc2)C1 (stereo not drawn) [EMBL-R05-3, 4-[3-[(4-chlorophenyl)methyl]-1-(phenylmethyl)-3-piperidinyl]-2-hydroxy-4-oxo-2-butenoic acid] | inhibit
O=C(O[C@@H]1Cc2c(O)cc(O)cc2O[C@@H]1c1cc(O)c(O)c(O)c1)c1cc(O)c(O)c(O)c1 [EGCG, [(2R,3R)-5,7-dihydroxy-2-(3,4,5-trihydroxyphenyl)chroman-3-yl]3,4,5-trihydroxybenzoate] | inhibit
